ChEMBL document CHEMBL1138586 (Bioorg Med Chem Lett, 2009)
pIC50, pKi: −log10 of the molar value.

Legend:
[1] = Oral bioavailability in rat at 5 mg/kg; type: ADME, organism-based; conditions: in vivo
[2] = Fraction unbound in human plasma at 10 uM after 30 mins; type: ADME, cell-free
[3] = Oral bioavailability in cynomolgus monkey at 7.5 mg/kg; type: ADME, organism-based, Macaca fascicularis; conditions: in vivo
[4] = AUC in cynomolgus monkey at 7.5 mg/kg, po; type: ADME, organism-based, Macaca fascicularis; parameters: dose 7.5 mg/kg, route oral; conditions: plasma
[5] = Volume of distribution in cynomolgus monkey at 0.75 mg/kg, iv and 7.5 mg/kg, po; type: ADME, organism-based, Macaca fascicularis; conditions: in vivo
Coagulation factor X = Coagulation factor X (Homo sapiens, UniProt P00742); test: Inhibition of Factor 10a
[6] = Oral bioavailability in Beagle dog at 2.5 mg/kg; type: ADME, organism-based, Canis lupus familiaris; conditions: in vivo
[7] = Half life in cynomolgus monkey at 0.75 mg/kg, iv and 7.5 mg/kg, po; type: ADME, organism-based, Macaca fascicularis; conditions: in vivo
[8] = Clearance in Beagle dog at 0.5 mg/kg, iv and 2.5 mg/kg, po; type: ADME, organism-based, Canis lupus familiaris; conditions: in vivo
[9] = AUC in rat at 5 mg/kg, po; type: ADME, organism-based; parameters: dose 5 mg/kg, route oral; conditions: plasma
[10] = Clearance in cynomolgus monkey at 0.75 mg/kg, iv and 7.5 mg/kg, po; type: ADME, organism-based, Macaca fascicularis; conditions: in vivo
[11] = Volume of distribution in rat at 1 mg/kg, iv and 5 mg/kg, po; type: ADME, organism-based; conditions: in vivo
[12] = Inhibition of kallikrein
[13] = Clearance in rat at 1 mg/kg, iv and 5 mg/kg, po; type: ADME, organism-based; conditions: in vivo
[14] = target: T1, Voltage-gated inwardly rectifying potassium channel KCNH2 (Homo sapiens, UniProt Q12809); test: Inhibition of human ERG expressed in HEK293 cells by patch-clamp method; type: cell-based
[15] = AUC in Beagle dog at 2.5 mg/kg, po; type: ADME, organism-based, Canis lupus familiaris; parameters: dose 2.5 mg/kg, route oral; conditions: plasma
[16] = target: T1, Voltage-gated inwardly rectifying potassium channel KCNH2
[17] = Volume of distribution in Beagle dog at 0.5 mg/kg, iv and 2.5 mg/kg, po; type: ADME, organism-based, Canis lupus familiaris; conditions: in vivo
[18] = Half life in rat at 1 mg/kg, iv and 5 mg/kg, po; type: ADME, organism-based; conditions: in vivo
[19] = Half life in Beagle dog at 0.5 mg/kg, iv and 2.5 mg/kg, po; type: ADME, organism-based, Canis lupus familiaris; conditions: in vivo
[20] = Oral bioavailability in Sprague-Dawley rat at 6 mg/kg; type: ADME, organism-based; conditions: in vivo
Prothrombin = Prothrombin (Homo sapiens, UniProt P00734); test: Inhibition of thrombin
Plasminogen = Plasminogen (Homo sapiens, UniProt P00747); test: Inhibition of plasmin
[21] = Inhibition of trypsin
[22] = target: Tissue-type plasminogen activator (Homo sapiens, UniProt P00750); test: Inhibition of tissue plasminogen activator
[23] = target: Vitamin K-dependent protein C (Homo sapiens, UniProt P04070); test: Inhibition of activated anticoagulant protein C
Chain of Vitamin K-dependent protein C (P04070 43-197 limits assumed): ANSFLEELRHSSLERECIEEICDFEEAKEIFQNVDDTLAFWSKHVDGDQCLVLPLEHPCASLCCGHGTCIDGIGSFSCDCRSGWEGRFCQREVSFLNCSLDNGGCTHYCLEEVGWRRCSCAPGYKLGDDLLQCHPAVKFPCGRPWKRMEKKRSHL
Chain of Vitamin K-dependent protein C (P04070 212-461 limits assumed): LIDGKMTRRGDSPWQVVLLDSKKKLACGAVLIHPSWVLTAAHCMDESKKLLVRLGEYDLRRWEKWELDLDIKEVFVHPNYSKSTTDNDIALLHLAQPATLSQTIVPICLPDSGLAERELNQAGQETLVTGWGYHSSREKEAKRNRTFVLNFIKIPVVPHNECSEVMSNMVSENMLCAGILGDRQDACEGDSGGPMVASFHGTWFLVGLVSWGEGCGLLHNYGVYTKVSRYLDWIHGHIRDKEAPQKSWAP

T1 sequence (Q12809 whole entry): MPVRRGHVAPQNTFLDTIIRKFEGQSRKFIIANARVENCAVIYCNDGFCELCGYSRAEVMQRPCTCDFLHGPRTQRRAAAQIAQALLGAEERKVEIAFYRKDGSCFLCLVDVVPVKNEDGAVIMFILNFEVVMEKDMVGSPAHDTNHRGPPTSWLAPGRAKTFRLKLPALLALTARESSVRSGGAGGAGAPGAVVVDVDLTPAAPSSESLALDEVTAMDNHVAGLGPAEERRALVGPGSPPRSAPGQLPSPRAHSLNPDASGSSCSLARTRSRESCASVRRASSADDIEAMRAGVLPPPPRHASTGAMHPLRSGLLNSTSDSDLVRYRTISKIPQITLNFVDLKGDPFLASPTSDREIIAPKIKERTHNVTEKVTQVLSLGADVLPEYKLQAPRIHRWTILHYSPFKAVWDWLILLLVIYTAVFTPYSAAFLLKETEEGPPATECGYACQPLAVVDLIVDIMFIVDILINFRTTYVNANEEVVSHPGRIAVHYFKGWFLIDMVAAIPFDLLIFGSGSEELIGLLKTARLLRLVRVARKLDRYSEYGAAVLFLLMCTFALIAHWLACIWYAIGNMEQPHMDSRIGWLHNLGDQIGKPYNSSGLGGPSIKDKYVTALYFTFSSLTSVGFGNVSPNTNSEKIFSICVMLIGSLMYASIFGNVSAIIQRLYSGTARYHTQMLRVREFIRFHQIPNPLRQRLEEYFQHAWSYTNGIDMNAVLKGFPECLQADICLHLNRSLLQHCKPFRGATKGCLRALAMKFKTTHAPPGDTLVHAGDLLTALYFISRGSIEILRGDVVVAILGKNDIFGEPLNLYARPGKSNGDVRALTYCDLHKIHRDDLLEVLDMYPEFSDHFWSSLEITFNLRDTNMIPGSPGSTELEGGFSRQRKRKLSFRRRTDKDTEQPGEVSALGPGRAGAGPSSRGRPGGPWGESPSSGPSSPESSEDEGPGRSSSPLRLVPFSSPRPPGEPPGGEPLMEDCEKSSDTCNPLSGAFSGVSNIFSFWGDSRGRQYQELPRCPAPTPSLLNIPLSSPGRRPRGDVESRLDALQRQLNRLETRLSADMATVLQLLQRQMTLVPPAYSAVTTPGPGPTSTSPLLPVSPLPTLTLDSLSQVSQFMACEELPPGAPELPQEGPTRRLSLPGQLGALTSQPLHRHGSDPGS
Chain of Coagulation factor X (P00742 41-179 limits assumed): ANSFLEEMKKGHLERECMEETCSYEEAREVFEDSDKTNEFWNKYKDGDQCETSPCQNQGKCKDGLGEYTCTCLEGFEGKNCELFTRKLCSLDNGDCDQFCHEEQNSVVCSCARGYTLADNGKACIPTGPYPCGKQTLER
Chain of Coagulation factor X (P00742 235-488 limits assumed): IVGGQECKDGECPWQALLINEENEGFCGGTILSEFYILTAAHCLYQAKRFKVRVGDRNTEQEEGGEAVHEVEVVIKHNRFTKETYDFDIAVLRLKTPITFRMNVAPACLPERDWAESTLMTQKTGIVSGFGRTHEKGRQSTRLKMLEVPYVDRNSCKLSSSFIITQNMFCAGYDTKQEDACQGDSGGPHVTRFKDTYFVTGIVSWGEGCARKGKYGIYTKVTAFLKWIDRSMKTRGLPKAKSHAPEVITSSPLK
Chain of Plasminogen (P00747 97-580 limits assumed): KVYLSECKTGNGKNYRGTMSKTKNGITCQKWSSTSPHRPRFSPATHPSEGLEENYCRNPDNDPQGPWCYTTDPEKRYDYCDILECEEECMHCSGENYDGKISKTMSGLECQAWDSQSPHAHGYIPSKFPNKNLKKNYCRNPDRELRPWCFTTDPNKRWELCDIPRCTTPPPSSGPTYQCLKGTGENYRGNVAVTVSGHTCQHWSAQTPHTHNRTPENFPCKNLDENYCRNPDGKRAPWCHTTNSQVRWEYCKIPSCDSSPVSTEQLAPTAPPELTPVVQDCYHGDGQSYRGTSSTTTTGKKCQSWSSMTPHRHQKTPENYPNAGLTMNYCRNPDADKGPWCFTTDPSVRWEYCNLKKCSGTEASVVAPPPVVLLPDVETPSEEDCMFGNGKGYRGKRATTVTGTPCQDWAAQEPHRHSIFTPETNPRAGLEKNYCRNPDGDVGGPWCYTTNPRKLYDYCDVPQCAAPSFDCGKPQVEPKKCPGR
Chain of Plasminogen (P00747 581-810 limits assumed): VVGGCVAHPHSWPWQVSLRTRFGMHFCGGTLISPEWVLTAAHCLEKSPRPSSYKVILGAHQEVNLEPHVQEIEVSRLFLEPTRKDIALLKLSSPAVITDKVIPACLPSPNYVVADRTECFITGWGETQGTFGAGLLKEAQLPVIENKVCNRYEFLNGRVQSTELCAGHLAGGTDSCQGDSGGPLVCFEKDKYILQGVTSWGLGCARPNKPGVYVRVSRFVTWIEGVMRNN
Chain of Tissue-type plasminogen activator (P00750 whole entry): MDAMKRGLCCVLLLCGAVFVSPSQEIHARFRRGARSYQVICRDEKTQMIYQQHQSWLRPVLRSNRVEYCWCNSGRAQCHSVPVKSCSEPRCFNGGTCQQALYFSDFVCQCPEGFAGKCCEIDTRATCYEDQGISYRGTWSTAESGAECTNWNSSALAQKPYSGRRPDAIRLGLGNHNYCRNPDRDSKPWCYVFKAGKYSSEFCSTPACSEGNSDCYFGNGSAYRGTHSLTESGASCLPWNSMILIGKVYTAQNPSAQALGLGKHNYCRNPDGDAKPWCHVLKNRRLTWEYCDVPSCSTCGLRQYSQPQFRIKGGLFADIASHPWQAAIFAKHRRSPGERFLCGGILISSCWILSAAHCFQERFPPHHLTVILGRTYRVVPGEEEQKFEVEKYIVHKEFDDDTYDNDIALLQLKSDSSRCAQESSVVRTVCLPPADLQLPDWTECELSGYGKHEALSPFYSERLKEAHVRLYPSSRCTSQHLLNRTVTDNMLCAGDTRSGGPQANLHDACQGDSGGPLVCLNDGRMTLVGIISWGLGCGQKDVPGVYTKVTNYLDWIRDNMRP

Compound | bioavailability [1] [%] | fraction unbound at 0.5 h, 10 µM [2] | bioavailability [3] [%] | AUC [4] [ng·h/mL] | Vd [5] [L/kg] | bioavailability [6] [%] | half-life [7] [min] | clearance [8] [mL/min/kg] | AUC [9] [ng·h/mL] | clearance [10] [mL/min/kg] | Vd [11] [L/kg] | pIC50 [12] | clearance [13] [mL/min/kg] | AUC [15] [ng·h/mL] | Vd [17] [L/kg] | half-life [18] [min] | half-life [19] [min] | further results
COc1ccc(NC(=O)c2ccc(C(=N)N(C)C)cc2F)c(C(=O)Nc2ccc(Cl)cn2)c1 | 48.6 | 0.634 | 77.6 | 6170 | 16.3 | 88.9 | 684 | 24.6 | 770 | 16.2 | 26.5 | 5.14 | 57.5 | 1500 | 16.8 | 330 | 474 | pIC50 (Coagulation factor X): 9.15; pKi (Coagulation factor X): 9.98; pIC50 [14]: 5.38; pKi [16]: 5.68
CN(C)C(=N)c1ccc(C(=O)Nc2ccccc2C(=O)Nc2ccc(Cl)cn2)cc1 |  |  |  |  |  |  |  |  |  |  |  |  |  |  |  |  |  | bioavailability [20]: 31%
COc1ccc(NC(=O)c2ccc(C(=N)N(C)C)cc2)c(C(=O)Nc2ccc(Cl)cn2)c1 [BETRIXABAN] | 23.8 | 0.8 | 58.7 | 4180 | 13.4 | 51.6 | 576 | 26.5 | 456 | 18.7 | 32.9 | 5.20 | 43.6 | 825 | 48.8 | 528 | 1270 | pIC50 (Prothrombin): < 5.00; pIC50 (Plasminogen): < 5.00; pIC50 [21]: < 5.00; pIC50 [22]: < 5.00; pIC50 [23]: < 5.00
